According to US20160368992A1, “A METHOD OF INCREASING GIPCR SIGNALIZATION IN THE CELLS OF A SCOLIOTIC SUBJECT” (CHU SAINTE-JUSTINE, priority 2013, published 2016):

Tests used:
GiPCR signaling [1] = test: GiPCR signaling after LPA stimulation in osteoblasts of AIS patients (CD44 CT SNP) and healthy controls in the presence of rOPN; assay type: cell-based, human; settings: same rOPN treatment
Description: Next, the effect of the CT SNP on GiPCR signaling was assessed. Osteoblasts from severe AIS patients (who underwent surgery) carrying the CT SNP and osteoblasts from healthy controls with wild type CD44 (CC) were stimulated with LPA in the presence of recombinant OPN (rOPN). The GiPCR defective signaling effect in response to the same rOPN treatment was […] 50% more in mutated CD44 (CT) osteoblasts as compared to in wild type CD44 (CC) osteoblasts (FIG. 9 A). […] The CT mutation in CD44 thus increases the sensitivity of scoliotic patients to the damaging effects of OPN on GiPCR signaling and thereby contributes the more severe phenotype observed in these subjects.

[2] = system: MOR, LPA1R, MT2R receptors and Gi1, Gi2, Gi3 proteins; test: Western blot and qPCR for expression of GPCRs and Gi protein isoforms in MC3T3-E1 cells; assay type: cell-based
Description: Thermo-Script™ reverse transcriptase (Invitrogen) was used to reverse transcribe mRNA into cDNA ([…] total concentration). Several dilutions were tested to choose the concentration that yielded the most efficient amplification. The human primers used were the following: […]
Each amplification was performed in duplicate using […] of diluted cDNA, […] of 3 mM primer solution and […] of 2× QuantiTect™ SYBR Green PCR Master Mix (QIAGEN Inc, Ontario, Canada). All reaction mixes were run on Mx3000P™ system from Stratagene (Agilent Technologies Company, La Jolla, Calif.) and analyzed with MxPro™ QPCR Software also from Stratagene. Relative quantification was calculated with the delta CT method using β-actin as the endogenous control.
Gi proteins isoforms expression levels were determined using Western blot technique. MC3T3-E1 cells were treated with PBS or rOPN 0.5 μg/ml overnight (R&D systems Inc., Minneapolis, USA). These cells were washed with cold PBS 1× then lysed in RIPA buffer (25 mM Tris.Hcl pH7.4, 150 mM NaCl, 1% NP-40, 1% sodium deoxycholate, 0.1% SDS) added with 5 mM NaVO4 and protease inhibitor cocktail (Roche molecular Biochemicals, Mannheim, Germany). Immunoblots were performed with primary antibodies directed specifically against Gi1, Gi2, Gi3, Gs, Phosphoserine, integrin β1 (Santa Cruz Biotechnology, Santa Cruz, Calif.), Mu opioid receptor (MOR) (abcam Toronto, ON, Canada), Lysophosphatidic acid receptor 1 (LPAR1) (assaybiotech Inc., USA), melatonin receptor 2 (MT2) and peroxidase-conjugated secondary antibody. […]
Given that the level of GPCRs is critical for their signaling, it was of interest to examine whether the defective GiPCR signaling induced by OPN is the consequence of a quantitative reduction of these receptors. For this purpose, MC3T3-E1 cells were treated with PBS or rOPN and the cell lysates were analyzed by Western blot for the expression of three different GPCRs; including mu-opioid (MOR), lysophosphatidic acid type 1 (LPA1R) and melatonin type 2 (MT2R) receptors. […]

GiPCR signaling [3] = test: CDS (CellKey) functional evaluation of Gi protein-mediated receptor signaling in primary mouse osteoblasts; assay type: cell-based, mice; settings: osteoblasts from bipedal CD44 knockout (CD44-/-) mice

In the case of “rOPN: exogenous recombinant osteopontin (R&D systems)”, the “additional reduction of GiPCR signaling in mutated CD44 (CT) vs wild type CD44 (CC) osteoblasts” value (GiPCR signaling [1]) is reported as 50%, the “level of MOR, LPA1R and MT2R receptors” value ([2]; Western blot, rOPN vs PBS) is reported as “not modified” and the “quantity of Gi proteins (Gi1, Gi2, Gi3)” value ([2]; immunoblotting, relative to PBS-treated cells) is reported as “no significant effect”. For the same substance, the “mRNA expression of Gi isoforms” value ([2]; qPCR, PBS- vs rOPN-treated cells) was “no significant difference” and the “response to DAMGO and oxymethazolin after rOPN treatment” value (GiPCR signaling [3]) was “concentration-dependent decrease in response”.
